Data published in patent publication US10543212B2, “Substituted amines for treating cardiac diseases” (Cardurion Pharmaceuticals, LLC, priority 2017, dated 2020).

What follows are molecules tested against T1, Full-length, GST-tagged, human CaMKIIδ (Homo sapiens, UniProt Q13557) (assay: CaMKIIδ binding assay (TR-FRET with BODIPY-labeled probe ligand)). Conditions: CaMKIIδ binding assay, results of Table 2.
T1 construct: Full-Length, Glutathione-S-Transferase(GST)-Tagged, Human CaMKIIδ was purchased from Carna Biosciences; purchased Carna Biosciences 02-111
Summary of the method: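 TR-FRET probe-displacement binding: 0.5 nM GST-CaMKIIδ with 10 μg/mL calmodulin, 1 mM CaCl2, 0.21 nM Tb-anti-GST Ab and 300 nM BODIPY probe in HEPES pH 7.6 buffer. Eight-point 4-fold dilutions, 1 hr at room temperature. IC50 from logistic fit; 100% inhibition defined by 3 μM parent compound.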

T1 sequence (Q13557 1-478 isoform Q13557-12): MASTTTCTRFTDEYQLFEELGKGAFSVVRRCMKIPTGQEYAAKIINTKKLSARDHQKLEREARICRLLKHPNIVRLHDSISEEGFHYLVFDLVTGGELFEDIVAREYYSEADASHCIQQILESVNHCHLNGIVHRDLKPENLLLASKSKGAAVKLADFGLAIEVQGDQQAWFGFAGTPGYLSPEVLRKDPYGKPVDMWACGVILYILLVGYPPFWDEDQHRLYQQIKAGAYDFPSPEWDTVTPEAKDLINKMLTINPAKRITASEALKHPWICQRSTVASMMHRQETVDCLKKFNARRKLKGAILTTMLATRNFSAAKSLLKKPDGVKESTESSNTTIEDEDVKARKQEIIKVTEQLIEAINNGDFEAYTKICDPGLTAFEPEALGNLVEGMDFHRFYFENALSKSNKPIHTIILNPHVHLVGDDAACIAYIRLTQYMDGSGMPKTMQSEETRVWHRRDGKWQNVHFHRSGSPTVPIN

Q: C[C@@H](Cn1cnnn1)Oc1cc(-c2cnc(Nc3cc4c(cc3Cl)CCN(C3CCOCC3)CC4)nc2)ccc1C#N [Example 538, (S)-2-((1-(1H-tetrazol-1-yl)propan-2-yl)oxy)-4-(2-((8-chloro-3-(tetrahydro-2H-pyran-4-yl)-2,3,4,5-tetrahydro-1H-benzo[d]azepin-7-yl)amino)pyrimidin-5-yl)benzonitrile] was tested. Which IC50 did it give?
A: < 10 nM

Q: Which IC50 does the source give for C[C@@H](Cn1cnnn1)Oc1cc(-c2cnc(Nc3cn(C4CCN(C5CCOC(C)(C)C5)CC4)nc3C(F)(F)F)nc2)ccc1Cl (stereo partly drawn) [Example 557, 5-(3-(((S)-1-(1H-tetrazol-1-yl)propan-2-yl)oxy)-4-chlorophenyl)-N-(1-(1-(2,2-dimethyltetrahydro-2H-pyran-4-yl)piperidin-4-yl)-3-(trifluoromethyl)-1H-pyrazol-4-yl)pyrimidin-2-amine] here?
A: < 10 nM

Q: CC(=O)N1CCC(n2cc(Nc3ncc(-c4ccc(Cl)c(O[C@@H](C)Cn5cnnn5)c4)cn3)c(C(F)(F)F)n2)CC1 [Example 488, (S)-1-(4-(4-((5-(3-((1-(1H-tetrazol-1-yl)propan-2-yl)oxy)-4-chlorophenyl)pyrimidin-2-yl)amino)-3-(trifluoromethyl)-1H-pyrazol-1-yl)piperidin-1-yl)ethan-1-one] was tested. Which IC50 did it give?
A: < 10 nM

Q: With “(S)-5-(3-((1-(1H-tetrazol-1-yl)propan-2-yl)oxy)-4-chlorophenyl)-N-(5-(piperidin-4-(trifluoromethoxy)phenyl)pyrimidin-2-amine [Example 532]” as the molecule, how does the IC50 read?
A: < 10 nM

Q: C[C@@H](Cn1cnnn1)Oc1cc(-c2cnc(Nc3cn(C4CCN(C(=O)OC(C)(C)C)CC4)nc3C(F)(F)F)nc2)ccc1Cl [Example 482, tert-butyl (S)-4-(4-((5-(3-((1-(1H-tetrazol-1-yl)propan-2-yl)oxy)-4-chlorophenyl)pyrimidin-2-yl)amino)-3-(trifluoromethyl)-1H-pyrazol-1-yl)piperidine-1-carboxylate] was tested. Which IC50 did it give?
A: 10 to 100 nM

Q: How did the IC50 turn out when Cc1ccc(N2CCC(N3CCOCC3)CC2)cc1Nc1ncc(-c2ccc(Cl)c(O[C@@H](C)Cn3cnnn3)c2)cn1 [Example 491] was run?
A: < 10 nM

Q: With COc1cc2c(cc1Nc1ncc(-c3ccc(Cl)c(O[C@@H](C)Cn4cnnn4)c3)cn1)CCN(CC(C)=O)C2 [Example 479, (S)-1-(6-((5-(3-((1-(1H-tetrazol-1-yl)propan-2-yl)oxy)-4-chlorophenyl)pyrimidin-2-yl)amino)-7-methoxy-3,4-dihydroisoquinolin-2(1H)-yl)propan-2-one] as the molecule, how does the IC50 read?
A: < 10 nM

Same assay, conditions: CaMKIIδ binding assay; activity class per Table 2

Q: How did the IC50 turn out when C[C@@H](Cn1cnnn1)Oc1cc(-c2cnc(Nc3cn(C4(C(=O)O)CCC4)nc3OCC(F)(F)F)nc2)ccc1Cl [Example 916, (S)-1-(4-((5-(3-((1-(1H-tetrazol-1-yl)propan-2-yl)oxy)-4-chlorophenyl)pyrimidin-2-yl)amino)-3-(2,2,2-trifluoroethoxy)-1H-pyrazol-1-yl)cyclobutane-1-carboxylic acid] was run?
A: 10 to 100 nM

Q: How did the IC50 turn out when CC(Cn1cnnn1)Oc1cc(-c2cnc(Nc3cn(CC4(O)CCC(C)(O)CC4)nc3OCC(F)(F)F)nc2)ccc1Cl [Example 924, cis-1-((4-((5-(3-(((S)-1-(1H-tetrazol-1-yl)propan-2-yl)oxy)-4-chlorophenyl)pyrimidin-2-yl)amino)-3-(2,2,2-trifluoroethoxy)-1H-pyrazol-1-yl)methyl)-4-methylcyclohexane-1,4-diol] was run?
A: < 10 nM

Q: With C[C@@H](Cn1cnnn1)Oc1cc(-c2cnc(Nc3cn(CC4(O)CCOCC4)nc3OCC(F)(F)F)nc2)ccc1Cl [Example 886, (S)-4-((4-((5-(3-((1-(1H-tetrazol-1-yl)propan-2-yl)oxy)-4-chlorophenyl)pyrimidin-2-yl)amino)-3-(2,2,2-trifluoroethoxy)-1H-pyrazol-1-yl)methyl)tetrahydro-2H-pyran-4-ol] as the molecule, how does the IC50 read?
A: < 10 nM

Q: With CCC1(N2CC3(CC(n4cc(Nc5ncc(-c6ccc(Cl)c(O[C@@H](C)Cn7cnnn7)c6)cn5)c(C(C)C)n4)C3)C2)CCOCC1 [Example 953, (S)-5-(3-((1-(1H-tetrazol-1-yl)propan-2-yl)oxy)-4-chlorophenyl)-N-(1-(2-(4-ethyltetrahydro-2H-pyran-4-yl)-2-azaspiro[3.3]heptan-6-yl)-3-isopropyl-1H-pyrazol-4-yl)pyrimidin-2-amine] as the molecule, how does the IC50 read?
A: < 10 nM

Q: COc1cccc(Cn2cc(Nc3ncc(-c4ccc(Cl)c(O[C@@H](C)Cn5cnnn5)c4)cn3)c(OCC(F)(F)F)n2)n1 [Example 928, (S)-5-(3-((1-(1H-tetrazol-1-yl)propan-2-yl)oxy)-4-chlorophenyl)-N-(1-((6-methoxypyridin-2-yl)methyl)-3-(2,2,2-trifluoroethoxy)-1H-pyrazol-4-yl)pyrimidin-2-amine] was tested. Which IC50 did it give?
A: 10 to 100 nM

Q: C[C@@H](Cn1cnnn1)Oc1cc(-c2cnc(Nc3cn([C@H]4C[C@H](N)C4)nc3OCC(F)(F)F)nc2)ccc1Cl [Example 941, 5-(3-(((S)-1-(1H-tetrazol-1-yl)propan-2-yl)oxy)-4-chlorophenyl)-N-(1-(trans-3-aminocyclobutyl)-3-(2,2,2-trifluoroethoxy)-1H-pyrazol-4-yl)pyrimidin-2-amine] was tested. Which IC50 did it give?
A: < 10 nM

Q: Which IC50 does the source give for CC(=O)OC(C)(C)CN1CC2(CC(n3cc(Nc4ncc(-c5ccc(Cl)c(O[C@@H](C)Cn6cnnn6)c5)cn4)c(C(F)(F)F)n3)C2)C1 [Example 974, (S)-1-(6-(4-((5-(3-((1-(1H-tetrazol-1-yl)propan-2-yl)oxy)-4-chlorophenyl)pyrimidin-2-yl)amino)-3-(trifluoromethyl)-1H-pyrazol-1-yl)-2-azaspiro[3.3]heptan-2-yl)-2-methylpropan-2-yl acetate] here?
A: < 10 nM

Q: Which IC50 does the source give for C[C@H](Cn1cnnn1)Oc1cc(-c2cnc(Nc3cn([C@H]4CC[C@@H](N5CCOCC5)CC4)nc3C(F)(F)F)nc2)ccc1Cl [Example 896, 5-(3-(((R)-1-(1H-tetrazol-1-yl)propan-2-yl)oxy)-4-chlorophenyl)-N-(1-(cis-4-morpholinocyclohexyl)-3-(trifluoromethyl)-1H-pyrazol-4-yl)pyrimidin-2-amine] here?
A: ≥ 100 nM

Same assay, conditions: Table 2; CaMKIIδ binding assay, activity given as class A/B/C

Q: C[C@@H](Cn1cnnn1)Oc1cc(-c2cnc(Nc3cn(C4CCC(CC(=O)O)CC4)nc3C(F)(F)F)nc2)ccc1Cl (stereo partly drawn) [Example 851, (S)-2-(4-(4-((5-(3-((1-(1H-tetrazol-1-yl)propan-2-yl)oxy)-4-chlorophenyl)pyrimidin-2-yl)amino)-3-(trifluoromethyl)-1H-pyrazol-1-yl)cyclohexyl)acetic acid] was tested. Which IC50 did it give?
A: ≥ 100 nM

Q: Which IC50 does the source give for C[C@@H](Cn1cnnn1)Oc1cc(-c2cnc(Nc3cn(CC4CNC(=O)O4)nc3C(F)(F)F)nc2)ccc1Cl (stereo partly drawn) [Example 738, 5-((4-((5-(3-(((S)-1-(1H-tetrazol-1-yl)propan-2-yl)oxy)-4-chlorophenyl)pyrimidin-2-yl)amino)-3-(trifluoromethyl)-1H-pyrazol-1-yl)methyl)oxazolidin-2-one] here?
A: < 10 nM

Q: C[C@@H](Cn1cnnn1)Oc1cc(-c2cnc(Nc3cn([C@H]4CC[C@@H](N5CCOCC5)CC4)nc3OCC(F)(F)F)nc2)ccc1F [Example 814, 5-(3-(((S)-1-(1H-tetrazol-1-yl)propan-2-yl)oxy)-4-fluorophenyl)-N-(1-(cis-4-morpholinocyclohexyl)-3-(2,2,2-trifluoroethoxy)-1H-pyrazol-4-yl)pyrimidin-2-amine] was tested. Which IC50 did it give?
A: 10 to 100 nM

Q: CC(C)c1nn([C@H]2CC[C@@H](N3CCOCC3)CC2)cc1Nc1ncc(-c2ccc(Cl)c(O[C@@H](C)Cn3cnnn3)c2)cn1 [Example 842, 5-(3-(((S)-1-(1H-tetrazol-1-yl)propan-2-yl)oxy)-4-chlorophenyl)-N-(3-isopropyl-1-(cis-4-morpholinocyclohexyl)-1H-pyrazol-4-yl)pyrimidin-2-amine] was tested. Which IC50 did it give?
A: < 10 nM

Same assay, conditions: Table 2; activity class for CaMKIIδ

Q: With COc1ccc(N2CCN(C(=O)CN(C)C)CC2)cc1Nc1ncc(-c2ccc(Cl)c(O[C@@H](C)Cn3cnnn3)c2)cn1 [Example 583, (S)-1-(4-(3-((5-(3-((1-(1H-tetrazol-1-yl)propan-2-yl)oxy)-4-chlorophenyl)pyrimidin-2-yl)amino)-4-methoxyphenyl)piperazin-1-yl)-2-(dimethylamino)ethan-1-one] as the molecule, how does the IC50 read?
A: < 10 nM

Q: For COc1ccc(N2C[C@@H](C)N[C@@H](C)C2)cc1Nc1ncc(-c2ccc(Cl)c(O[C@@H](C)Cn3cnnn3)c2)cn1 [Example 612, 5-(3-(((S)-1-(1H-tetrazol-1-yl)propan-2-yl)oxy)-4-chlorophenyl)-N-(5-(cis-3,5-dimethylpiperazin-1-yl)-2-methoxyphenyl)pyrimidin-2-amine], which IC50 is on record?
A: < 10 nM

Q: COc1nc(N2CCN(CC3COC3)CC2)ccc1Nc1ncc(-c2ccc(Cl)c(O[C@@H](C)Cn3cnnn3)c2)cn1 [Example 639, (S)-5-(3-((1-(1H-tetrazol-1-yl)propan-2-yl)oxy)-4-chlorophenyl)-N-(2-methoxy-6-(4-(oxetan-3-ylmethyl)piperazin-1-yl)pyridin-3-yl)pyrimidin-2-amine] was tested. Which IC50 did it give?
A: 10 to 100 nM

Q: Which IC50 does the source give for C[C@@H](Cn1cnnn1)Oc1cc(-c2cnc(Nc3cn(C4CN(C5CCOCC5)C4)nc3C(F)(F)F)nc2)ccc1Cl [Example 698, (S)-5-(3-((1-(1H-tetrazol-1-yl)propan-2-yl)oxy)-4-chlorophenyl)-N-(1-(1-(tetrahydro-2H-pyran-4-yl)azetidin-3-yl)-3-(trifluoromethyl)-1H-pyrazol-4-yl)pyrimidin-2-amine] here?
A: < 10 nM

Q: C[C@@H](Cn1cnnn1)Oc1cc(-c2cnc(Nc3cn(C4Cc5ccccc5C4)nc3C(F)(F)F)nc2)ccc1Cl [Example 724, (S)-5-(3-((1-(1H-tetrazol-1-yl)propan-2-yl)oxy)-4-chlorophenyl)-N-(1-(2,3-dihydro-1H-inden-2-yl)-3-(trifluoromethyl)-1H-pyrazol-4-yl)pyrimidin-2-amine] was tested. Which IC50 did it give?
A: ≥ 100 nM

Q: Which IC50 does the source give for COc1cc(N2CCN(C3CCOCC3)CC2)ncc1Nc1ncc(-c2ccc(Cl)c(O[C@@H](C)Cn3cnnn3)c2)cn1 [Example 650, (S)-5-(3-((1-(1H-tetrazol-1-yl)propan-2-yl)oxy)-4-chlorophenyl)-N-(4-methoxy-6-(4-(tetrahydro-2H-pyran-4-yl)piperazin-1-yl)pyridin-3-yl)pyrimidin-2-amine] here?
A: < 10 nM
